According to the supplement of paper PMC10307832:

Assays:
Test in all cases: relative viability (nuclei count vs DMSO), 5 days (fraction); higher = more cells survive
[1] = compound: C1CNCCC1C2=CC(=NN2)C3=CC=NC=C3 + C[C@@H](Oc1cc(-c2cnn(C3CCNCC3)c2)cnc1N)c1c(Cl)ccc(F)c1Cl [Crizotinib] (partner 1 µM)
Summary of the method: (§1)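 Relative viability equals treated-well nuclei counts divided by vehicle-well nuclei counts. Counts came from 4× images of lung cancer cell lines grown in 1536-well plates for 5 days after pin-tool dosing on the day after seeding. Dosing used one drug alone or a fixed anchor-drug dose plus five library-drug doses (not always all listed) in √10 steps, and values are medians of duplicate plates.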

[2] = compound: C1CNCCC1C2=CC(=NN2)C3=CC=NC=C3 + O=C(CCCCCCC(=O)Nc1ccccc1)NO [Vorinostat] (partner 1 µM)
Summary of the method: as §1

[3] = compound: O[C@H]1CC[C@H](Nc2ncc3nc(Nc4c(F)cc(F)cc4F)n([C@H]4CCOC4)c3n2)CC1 [Tanzisertib] + CC1(C)CCC(c2ccc(Cl)cc2)=C(CN2CCN(c3ccc(C(=O)NS(=O)(=O)c4ccc(N[C@H](CCN5CCOCC5)CSc5ccccc5)c(S(=O)(=O)C(F)(F)F)c4)cc3)CC2)C1 [Navitoclax] (partner 0.5 µM)
Summary of the method: as §1

[4] = compound: O[C@H]1CC[C@H](Nc2ncc3nc(Nc4c(F)cc(F)cc4F)n([C@H]4CCOC4)c3n2)CC1 [Tanzisertib] + O=C(c1cc(Cc2n[nH]c(=O)c3ccccc23)ccc1F)N1CCN(C(=O)C2CC2)CC1 [Olaparib] (partner 8 µM)
Summary of the method: as §1

Cell Line | relative viability ([1]; first compound 0.08 µM) | relative viability ([1]; first compound 0.8 µM) | relative viability ([1]; first compound 2.53 µM) | relative viability ([1]; first compound 8 µM) | relative viability ([2]; first compound 0.08 µM) | relative viability ([2]; first compound 0.8 µM) | relative viability ([2]; first compound 2.53 µM) | relative viability ([2]; first compound 8 µM) | relative viability ([3]; first compound 0.08 µM) | relative viability ([3]; first compound 0.253 µM) | relative viability ([3]; first compound 0.8 µM) | relative viability ([3]; first compound 2.53 µM) | relative viability ([3]; first compound 8 µM) | relative viability ([4]; first compound 0.08 µM) | relative viability ([4]; first compound 0.253 µM) | relative viability ([4]; first compound 0.8 µM) | relative viability ([4]; first compound 2.53 µM) | relative viability ([4]; first compound 8 µM)
SK-MES-1 | 1.03 | 0.995 | 0.992 | 0.94 | 0.979 | 0.978 | 1.22 | 1.07 | 1.31 | 1.25 | 1.26 | 1.22 | 1.21 | 0.699 | 0.709 | 0.742 | 0.653 | 0.624
NCI-H1755 | 0.967 | 0.836 | 0.887 | 0.776 | 0.717 | 0.737 | 0.628 | 0.736 | 1.1 | 1.02 | 0.98 | 0.982 | 0.931 | 0.906 | 0.868 | 0.889 | 0.855 | 0.865
NCI-H2023 | 0.427 | 0.688 | 0.738 | 0.709 | 0.262 | 0.589 | 0.767 | 0.602 | 1.07 | 1.05 | 1.08 | 0.999 | 0.962 | 0.523 | 0.47 | 0.497 | 0.44 | 0.452
LC-2-ad | 0.491 | 0.478 | 0.445 | 0.456 | 0.723 | 0.757 | 0.741 | 0.658 | 0.549 | 0.441 | 0.548 | 0.534 | 0.507 | 0.68 | 0.743 | 0.706 | 0.714 | 0.794
NCI-H1666 | 0.762 | 0.935 | 0.989 | 0.902 | 0.964 | 1.06 | 1.07 | 1.08 | 0.972 | 1.03 | 0.916 | 1.06 | 0.878 | 0.754 | 0.801 | 0.747 | 0.729 | 0.768
201T | 1.01 | 1.01 | 1.02 | 0.991 | 0.954 | 0.955 | 1.02 | 0.949 | 1.19 | 1.18 | 1.23 | 1.18 | 1.18 | 0.854 | 0.902 | 0.855 | 0.848 | 0.864
NCI-H2009 | 0.96 | 1.08 | 1.08 | 1.03 | 0.754 | 0.693 | 0.8 | 0.728 | 1.22 | 1.27 | 1.19 | 1.27 | 1.22 | 0.634 | 0.734 | 0.743 | 0.73 | 0.752
NCI-H2228 | 0.566 | 0.428 | 0.486 | 0.482 | 0.537 | 0.589 | 0.667 | 0.587 | 0.985 | 1.06 | 1.07 | 1.04 | 0.742 | 0.579 | 0.506 | 0.556 | 0.788 | 0.496
LU99A | 0.5 | 0.586 | 0.596 | 0.558 | 0.465 | 0.45 | 0.528 | 0.554 | 0.713 | 0.847 | 0.879 | 0.743 | 0.781 | 0.268 | 0.253 | 0.246 | 0.276 | 0.255
NCI-H1437 | 0.866 | 0.967 | 0.929 | 0.883 | 0.863 | 0.94 | 0.912 | 0.971 | 1.14 | 1.1 | 1.08 | 1.13 | 1.08 | 0.634 | 0.647 | 0.669 | 0.652 | 0.619
EKVX | 1.05 | 0.807 | 0.956 | 0.925 | 0.78 | 0.82 | 0.861 | 0.737 | 0.95 | 0.923 | 0.96 | 0.91 | 0.861 | 0.888 | 0.876 | 0.862 | 0.872 | 0.792
IA-LM | 0.842 | 0.839 | 1.14 | 0.92 | 0.974 | 1.06 | 0.95 | 1.03 | 0.814 | 0.622 | 0.691 | 0.963 | 1.1 | 0.738 | 0.765 | 0.754 | 0.859 | 0.789
NCI-H520 | 0.742 | 0.921 | 0.727 | 0.736 | 0.677 | 0.777 | 0.746 | 0.7 | 1.12 | 1.1 | 1.1 | 1.01 | 1.11 | 0.395 | 0.331 | 0.39 | 0.328 | 0.433
LCLC-97TM1 | 0.348 | 0.429 | 0.408 | 0.406 | 0.749 | 0.701 | 0.909 | 0.653 | – | 0.53 | 0.38 | 0.394 | 0.462 | 0.487 | 0.51 | 0.416 | 0.301 | 0.47
NCI-H2170 | 1.04 | 1.23 | 1.42 | 1.15 | 0.658 | 0.825 | 0.771 | 0.762 | 0.702 | 0.496 | 0.656 | 0.57 | 0.582 | 0.669 | 0.569 | 0.601 | 0.604 | 0.53
NCI-H3122 | 0.303 | 0.265 | 0.255 | 0.283 | 0.717 | 0.994 | 1.05 | 1.12 | 1.03 | 1.02 | 1.04 | 1.07 | 0.972 | 0.708 | 0.587 | 0.634 | 0.583 | 0.62
PC-14 | 0.917 | 0.874 | 1.04 | 0.835 | 0.536 | 0.712 | 0.897 | 0.7 | 1.03 | 1.05 | 0.934 | 1.02 | 0.736 | 0.343 | 0.228 | 0.402 | 0.271 | 0.246
EPLC-272H | 0.922 | 0.937 | 0.91 | 0.867 | 0.618 | 0.501 | 0.452 | 0.468 | 1.33 | 1.14 | 0.971 | 1.17 | 1.04 | 0.991 | 0.767 | 0.758 | 1.51 | 0.572
